From PubChem BioAssay (NCI)
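Following 48 hours of exposure in 96-well plates, responses at five concentrations were used to interpolate endpoints linearly. GI50: concentration for 50% inhibition of growth. Definition used: TGI = concentration required for complete inhibition of growth.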

Assays:
Assay in all cases: inhibition of tumour cell growth, NCI panel, 48 h
[1] = test system: HS 578T breast
[2] = test system: PC-3 prostate
[3] = test system: OVCAR-4 ovarian
[4] = test system: SK-MEL-5 melanoma
[5] = test system: HCT-15 colon
[6] = test system: RXF 393 renal
[7] = test system: UO-31 renal
[8] = test system: NCI-H522 lung
[9] = test system: CAKI-1 renal
[10] = test system: HOP-62 NSCLC
[11] = test system: SNB-19 CNS
[12] = test system: CCRF-CEM leukemia
[13] = test system: COLO 205 colon
[14] = test system: NCI-H226 lung
[15] = test system: U251 CNS
[16] = test system: LOX IMVI melanoma
[17] = test system: MOLT-4 leukemia
[18] = test system: UACC-62 melanoma
[19] = test system: HL-60(TB) leukemia
[20] = test system: IGROV1 ovarian
[21] = test system: SNB-75 CNS
[22] = test system: MDA-MB-435
[23] = test system: ACHN renal
[24] = test system: SW-620 colon
[25] = test system: SN12C renal
[26] = test system: RPMI-8226 leukemia
[27] = test system: SF-268 CNS
[28] = test system: A549 NSCLC
[29] = test system: A498 renal
[30] = test system: HT29 colon
[31] = test system: OVCAR-8 ovarian
[32] = test system: MCF7 breast
[33] = test system: DU-145 prostate
[34] = test system: HOP-92 NSCLC
[35] = test system: K-562 leukemia
[36] = test system: 786-0 renal
[37] = test system: OVCAR-5 ovarian
[38] = test system: NCI-H23 lung
[39] = test system: NCI/ADR-RES ovarian
[40] = test system: HCT-116 colon
[41] = test system: TK-10 renal
[42] = test system: BT-549 breast
[43] = test system: M14 melanoma
[44] = test system: UACC-257 melanoma
[45] = test system: T-47D breast
[46] = test system: SK-MEL-2 melanoma
[47] = test system: NCI-H460 lung
[48] = test system: OVCAR-3 ovarian
[49] = test system: SK-MEL-28 melanoma
[50] = test system: SK-OV-3 ovarian
[51] = test system: KM12 colon
[52] = test system: MALME-3M melanoma
[53] = test system: SF-539 CNS
[54] = test system: HCC-2998 colon
[55] = test system: MDA-MB-231 breast

SMILES: O=C(O)CCC(NC(=S)S)C(=O)O.[Na+].[Zn+2] (stereo not given)
- GI50 [1]: > 50 µM
- TGI [1]: > 50 µM
- GI50 [2]: > 50 µM
- TGI [2]: > 50 µM
- GI50 [3]: > 50 µM
- TGI [3]: > 50 µM
- GI50 [4]: > 50 µM
- TGI [4]: > 50 µM
- GI50 [5]: > 50 µM
- TGI [5]: > 50 µM
- GI50 [6]: > 50 µM
- TGI [6]: > 50 µM
- GI50 [7]: > 50 µM
- TGI [7]: > 50 µM
- GI50 [8]: > 50 µM
- TGI [8]: > 50 µM
- GI50 [9]: > 50 µM
- TGI [9]: > 50 µM
- GI50 [10]: > 50 µM
- TGI [10]: > 50 µM
- GI50 [11]: > 50 µM
- TGI [11]: > 50 µM
- GI50 [12]: > 50 µM
- TGI [12]: > 50 µM
- GI50 [13]: > 50 µM
- TGI [13]: > 50 µM
- GI50 [14]: > 50 µM
- TGI [14]: > 50 µM
- GI50 [15]: > 50 µM
- TGI [15]: > 50 µM
- GI50 [16]: > 50 µM
- TGI [16]: > 50 µM
- GI50 [17]: > 50 µM
- TGI [17]: > 50 µM
- GI50 [18]: > 50 µM
- TGI [18]: > 50 µM
- GI50 [19]: > 50 µM
- TGI [19]: > 50 µM
- GI50 [20]: > 50 µM
- TGI [20]: > 50 µM
- GI50 [21]: > 50 µM
- TGI [21]: > 50 µM
- GI50 [22]: > 50 µM
- TGI [22]: > 50 µM
- GI50 [23]: > 50 µM
- TGI [23]: > 50 µM
- GI50 [24]: > 50 µM
- TGI [24]: > 50 µM
- GI50 [25]: > 50 µM
- TGI [25]: > 50 µM
- GI50 [26]: > 50 µM
- TGI [26]: > 50 µM
- GI50 [27]: > 50 µM
- TGI [27]: > 50 µM
- GI50 [28]: > 50 µM
- TGI [28]: > 50 µM
- GI50 [29]: > 50 µM
- TGI [29]: > 50 µM
- GI50 [30]: > 50 µM
- TGI [30]: > 50 µM
- GI50 [31]: > 50 µM
- TGI [31]: > 50 µM
- GI50 [32]: > 50 µM
- TGI [32]: > 50 µM
- GI50 [33]: > 50 µM
- TGI [33]: > 50 µM
- GI50 [34]: > 50 µM
- TGI [34]: > 50 µM
- GI50 [35]: > 50 µM
- TGI [35]: > 50 µM
- GI50 [36]: > 50 µM
- TGI [36]: > 50 µM
- GI50 [37]: > 50 µM
- TGI [37]: > 50 µM
- GI50 [38]: > 50 µM
- TGI [38]: > 50 µM
- GI50 [39]: > 50 µM
- TGI [39]: > 50 µM
- GI50 [40]: > 50 µM
- TGI [40]: > 50 µM
- GI50 [41]: > 50 µM
- TGI [41]: > 50 µM
- GI50 [42]: > 50 µM
- TGI [42]: > 50 µM
- GI50 [43]: > 50 µM
- TGI [43]: > 50 µM
- GI50 [44]: > 50 µM
- TGI [44]: > 50 µM
- GI50 [45]: > 50 µM
- TGI [45]: > 50 µM
- GI50 [46]: > 50 µM
- TGI [46]: > 50 µM
- GI50 [47]: > 50 µM
- TGI [47]: > 50 µM
- GI50 [48]: > 50 µM
- TGI [48]: > 50 µM
- GI50 [49]: > 50 µM
- TGI [49]: > 50 µM
- GI50 [50]: > 50 µM
- TGI [50]: > 50 µM
- GI50 [51]: > 50 µM
- TGI [51]: > 50 µM
- GI50 [52]: > 50 µM
- TGI [52]: > 50 µM
- GI50 [53]: > 50 µM
- TGI [53]: > 50 µM
- GI50 [54]: > 50 µM
- TGI [54]: > 50 µM
- GI50 [55]: > 50 µM
- TGI [55]: > 50 µM
